Positions of bridges follow the written chain, without caps; N, C: chain ends. Non-standard residues stand in square brackets, D forms with d. Residues, ends and D or L forms follow the SMILES beside them. Triazole bridges read from a SMILES are 1,4-linked. *: point of attachment. Benzoyl(3,5-(OH)2) = O=C(c1cc(O)cc(O)c1)*; Lys(N3) = [N-]=[N+]=NCCCC[C@H](N)C(=O)O; dPhe(4-F) = N[C@H](Cc1ccc(F)cc1)C(=O)O; Nle = CCCC[C@H](N)C(=O)O; Pra = C#CC[C@H](N)C(=O)O
Columns and labels:
human recombinant MC4R = biological target: T1, human recombinant MC4R (Homo sapiens, UniProt P32245); assay: Ca2+ signalling functional assay, MC4R stable cell line (CHO-K1/Gα15); assay type: cell-based
T1 construct: host or cells: CHO-K1/Gα15
Protocol: The Ca^2+ signalling functional assay was performed on a human recombinant MC4R stable cell line (CHO-K1/Gα15, GenScript). The cells were cultured at 37° C. and 5% CO2 with culture medium (90% Ham's F-12K (Kaighn's)+10% FBS+8 μg/mL Puromycin+100 μg/mL Hygromycin B). Cells were washed with PBS and then detached by incubation with 0.05% (w/v) Trypsin EDTA at 37° C. for 2-5 mins. Detached cells were suspended in Ham's F-12K (Kaighn's) (containing 10% FBS) and a 50 μL cell suspension was seeded into each well of a 384-well assay plate at a density of 15,000 cells/well. Cells were allowed to settle overnight at 37° C., 5% CO2. The next day, the assay plate was centrifuged and the media was replaced with dye (1×) in assay buffer (containing HBSS, HEPES 20 mM and probenecid 1 mM) and incubated for 1 h at 37° C. […] Then, 100 nL of compounds were transferred to the compound plate by the Echo machine. 30 μL assay buffer was added to the compounds plate and then shaken for 20 to 40 minutes. The plates were placed on the FLIPR and 15 μL of the compound was added to each well, then calcium flux signal was measured.

[1] = In vivo topical administration pharmacokinetics / tissue distribution of K173, rat; conditions: four days of BID topical dosing
Protocol: To evaluate the pharmacokinetics of the peptide formulations following topical administration a study in rats was undertaken.
Treatment was administered twice daily (BID) with approximately 6-8 hours between BID doses.
All animals underwent twice daily cage side clinical observations with particular attention paid to the eyes. Animals were not tranquilized for the examinations.
When animals were terminal, blood was collected by inserting a 25G needle into the heart and the animal was exsanguinated and the blood was collected into K2EDTA tubes for plasma collection. […] Once centrifuged, the clear plasma was transferred to a prelabelled polypropylene tube, snap frozen and stored at approximately −80° C.
Following euthanasia, eyes were enucleated and rinsed twice with fresh ice-cold PBS. […] The anterior segment and lens were removed and the neurosensory retina was dissected into pre-weighed 2 mL polypropylene tube, re-weighed and snap frozen. The brain was collected and weighted and the hypothalamus, hippocampus, and remining brain were dissected, placed in pre-weighted polypropylene tubes, re-weighed, and snap frozen. All tissues were stored at −80° C.
The concentrations of K173 in the aqueous humor, retina, hypothalamus, hippocampus, remaining brain tissue, and plasma was measured and the values are provided in Table 7.

T1 sequence (P32245 whole entry): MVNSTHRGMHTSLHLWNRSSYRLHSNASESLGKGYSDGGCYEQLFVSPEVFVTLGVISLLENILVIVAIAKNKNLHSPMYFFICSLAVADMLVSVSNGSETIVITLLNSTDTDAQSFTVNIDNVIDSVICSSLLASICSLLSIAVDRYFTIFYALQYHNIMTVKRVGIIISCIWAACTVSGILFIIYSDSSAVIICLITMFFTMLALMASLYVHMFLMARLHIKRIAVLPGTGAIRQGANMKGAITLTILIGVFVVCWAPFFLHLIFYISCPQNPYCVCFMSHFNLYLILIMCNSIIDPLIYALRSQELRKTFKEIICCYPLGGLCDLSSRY

For `CCCC[C@H](NC(=O)c1cc(O)cc(O)c1)C(=O)N[C@H]1CCCCn2cc(nn2)C[C@@H](C(N)=O)NC(=O)[C@H](Cc2c[nH]c3ccccc23)NC(=O)[C@H](CCCNC(=N)N)NC(=O)[C@@H](Cc2ccc(F)cc2)NC(=O)[C@H](Cc2c[nH]cn2)NC1=O` [KR-072, HyBA-Nle-[Lys(N3)-His-Dphe(4-F)-Arg-Trp-Pra]-NH2] ({Benzoyl(3,5-(OH)2)}-[Nle][Lys(N3)]H[dPhe(4-F)]RW[Pra]-NH2; triazole 2-7), the EC50 (human recombinant MC4R) was 98.6 nM, the “K173 level in the neural retina” value [1] was “high levels” and the “K173 presence in brain” value ([1]; hypothalamus, hippocampus, remaining brain) was “found in all parts of the brains”.
